Measured values taken from ChEMBL document CHEMBL5532661, “Discovery of a Novel Glucagon-like Peptide-1 (GLP-1) Analogue from Bullfrog and Investigation of Its Potential for Designing GLP-1-Based Multiagonists” (J Med Chem, 2024).
Numbered stars: 1 amine (or outer) side, 2 acyl side, 3 side chain; on linkers, the order of the positions; unused ones are H or OH. Side chains are listed from the residue outwards. Peptide text beside a SMILES is read from it. * marks the point of attachment. C18 diacid = O=C(O)CCCCCCCCCCCCCCCCC(=O)*; γGlu = O=C(O)[C@H](CCC(=O)[*:2])N[*:1]; Palmitoyl = CCCCCCCCCCCCCCCC(=O)*; AEEA = NCCOCCOCC(=O)O

Tests used:
Format in all cases: functional, cell-based
[1] = target: T1, Glucagon-like peptide 1 receptor (Homo sapiens, UniProt P43220); experiment: Agonist activity at human GLP-1 receptor expressed in HEK293 cells assessed as cAMP level measured after 60 mins by HTRF based assay
Glucagon receptor [2] = target: T2, Glucagon receptor (Homo sapiens, UniProt P47871); experiment: Agonist activity at human GCGR expressed in HEK293 cells assessed as cAMP level by measuring relative percent (glucagon EC50/compound EC50) measured after 60 mins by HTRF based assay relative to glucagon
Glucagon receptor [3] = target: T2, Glucagon receptor; experiment: Agonist activity at human GCGR expressed in HEK293 cells assessed as cAMP level measured after 60 mins by HTRF based assay
[4] = target: T1, Glucagon-like peptide 1 receptor; experiment: Agonist activity at human GLP-1 receptor expressed in HEK293 cells assessed as cAMP level by measuring relative percent (GLP-1 EC50/compound EC50) measured after 60 mins by HTRF based assay relative to GLP-1

T2 sequence (P47871 whole entry): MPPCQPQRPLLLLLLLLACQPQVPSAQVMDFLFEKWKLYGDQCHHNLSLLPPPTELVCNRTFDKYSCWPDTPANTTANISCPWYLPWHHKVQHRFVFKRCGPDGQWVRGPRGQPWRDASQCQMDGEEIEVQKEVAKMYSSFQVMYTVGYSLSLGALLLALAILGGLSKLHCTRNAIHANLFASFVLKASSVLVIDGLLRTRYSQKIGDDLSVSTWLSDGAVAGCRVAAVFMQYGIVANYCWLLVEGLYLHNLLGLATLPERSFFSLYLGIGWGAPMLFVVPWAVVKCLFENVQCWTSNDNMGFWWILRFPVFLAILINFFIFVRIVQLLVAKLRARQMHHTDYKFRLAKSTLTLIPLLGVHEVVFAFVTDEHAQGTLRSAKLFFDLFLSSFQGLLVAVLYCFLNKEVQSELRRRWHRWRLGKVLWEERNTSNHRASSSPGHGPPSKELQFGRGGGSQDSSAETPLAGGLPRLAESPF
T1 sequence (P43220 whole entry): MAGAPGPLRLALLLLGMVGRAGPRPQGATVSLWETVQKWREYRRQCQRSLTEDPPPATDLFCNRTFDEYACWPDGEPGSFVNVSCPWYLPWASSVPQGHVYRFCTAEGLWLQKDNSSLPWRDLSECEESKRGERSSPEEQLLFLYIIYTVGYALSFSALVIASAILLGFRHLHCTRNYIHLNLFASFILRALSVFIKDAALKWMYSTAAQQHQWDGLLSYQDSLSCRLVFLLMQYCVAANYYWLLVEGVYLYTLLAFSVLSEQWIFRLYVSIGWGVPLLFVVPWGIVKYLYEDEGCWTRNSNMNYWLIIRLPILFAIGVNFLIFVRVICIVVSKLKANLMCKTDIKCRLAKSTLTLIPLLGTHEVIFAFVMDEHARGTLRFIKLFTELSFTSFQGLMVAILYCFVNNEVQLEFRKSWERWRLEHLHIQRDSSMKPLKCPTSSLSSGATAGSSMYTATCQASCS

Molecule	EC50 [1]	Activity (Glucagon receptor [2])	EC50 (Glucagon receptor [3])	Activity [4]	Activity (Glucagon receptor [2]; filed as agonist)	Activity ([4]; filed as agonist)
H-HSQGTFTSDMSSYLDSRRAQDFVDWLIKGR-NH2	0.7 nM	3%	3.1 nM	5%		
H-HADGTFTSDMSSYLEEKAAKEFVDALIKGRPK-NH2	0.092 nM					
H-HADGTFTSDMSSYLEEKAAKEFVDWAIKGRPK-NH2	0.53 nM					
H-HADGTFTSDMSSYLEEKRAKEFVDWLIKGRPK-NH2	0.72 nM					
H-HSQGTFTSDMSSYLDSRRAQDFVDWLKNGGPSSGAPPPS-NH2	0.061 nM		0.15 nM		61%	87%
H-HADGTFTSDMSAYLEEKAAKEFVDWLIKGRPK-NH2	0.12 nM					
H-HSQGTFTSDMSKYLDSRRAQDFVDWLIKG-NH2	0.81 nM	4%	2.6 nM	7%		
H-HSQGTFTSDMSSYLDSRRAQEFVDWLIKGR-NH2	0.87 nM	3%	3.5 nM	6%		
H-HSQGTFTSDMSKYLDSRRAQDFVDWLIKGRPSSGAPPPS-NH2	0.13 nM	10%	0.91 nM			41%
H-HSQGTFTSDMSSYLDSRRAQDFVDWLIKGRPSSGAPPPS-NH2	0.21 nM	5%	1.8 nM	25%		
CSCC[C@H](NC(=O)[C@H](CC(=O)O)NC(=O)[C@H](CO)NC(=O)[C@@H](NC(=O)[C@H](Cc1ccccc1)NC(=O)[C@@H](NC(=O)CNC(=O)[C@H](CCC(N)=O)NC(=O)[C@H](CO)NC(=O)[C@@H](N)Cc1c[nH]cn1)[C@@H](C)O)[C@@H](C)O)C(=O)N[C@@H](CO)C(=O)N[C@@H](CCCCN)C(=O)N[C@@H](Cc1ccc(O)cc1)C(=O)N[C@@H](CCCCNC(=O)COCCOCCNC(=O)COCCOCCNC(=O)CC[C@H](NC(=O)CCCCCCCCCCCCCCCCC(=O)O)C(=O)O)C(=O)N[C@@H](CC(=O)O)C(=O)N[C@@H](CO)C(=O)N[C@@H](CCCNC(=N)N)C(=O)N[C@@H](CCCNC(=N)N)C(=O)N[C@@H](C)C(=O)N[C@@H](CCC(N)=O)C(=O)N[C@@H](CC(=O)O)C(=O)N[C@@H](Cc1ccccc1)C(=O)N[C@H](C(=O)N[C@@H](CC(=O)O)C(=O)N[C@@H](Cc1c[nH]c2ccccc12)C(=O)N[C@@H](CC(C)C)C(=O)N[C@@H](CCCCN)C(=O)N[C@@H](CC(N)=O)C(=O)NCC(=O)NCC(=O)N1CCC[C@H]1C(=O)N[C@@H](CO)C(=O)N[C@@H](CO)C(=O)NCC(=O)N[C@@H](C)C(=O)N1CCC[C@H]1C(=O)N1CCC[C@H]1C(=O)N1CCC[C@H]1C(=O)N[C@@H](CO)C(N)=O)C(C)C (H-HSQGTFTSDMSKYK([AEEA-AEEA-γGlu-C18 diacid])DSRRAQDFVDWLKNGGPSSGAPPPS-NH2)	0.049 nM	8%	1.2 nM			108%
H-HADGTFTSDMSSYLEEKAAKEFVDWLIKGRPA-NH2	0.018 nM					
H-HADGTFTSDMSSYLAEKAAKEFVDWLIKGRPK-NH2	0.61 nM					
H-HSQGTFTSDMSKYLDSRRAQDFVDWLIKGR-NH2	0.28 nM	5%	1.8 nM	19%		
H-HADGTFTSDMSSYLEEKAAKEFVDWLIKGRAK-NH2	0.099 nM					
H-HADGTFTSDMSSYLEEKAAKEFVDWLIAGRPK-NH2	0.12 nM					
H-HADGIYTSDVASLTDYLKSKRFVESLSNYNRKQNDRRM-NH2	0.19 nM					

Molecule	EC50 [1]	Activity (Glucagon receptor [2])	EC50 (Glucagon receptor [3])	Activity [4]	Activity (Glucagon receptor [2]; filed as agonist)	Activity ([4]; filed as agonist)
H-HSQGTFTSDMSKYLDSRRAQDFVDWLIKGRNRNNIA-NH2	0.091 nM		0.18 nM		51%	58%
H-HADGTFTNDMTSYLDAKAARDFVSWLARSDKS-NH2	0.23 nM					
CSCC[C@H](NC(=O)[C@H](CC(=O)O)NC(=O)[C@H](CO)NC(=O)[C@@H](NC(=O)[C@H](Cc1ccccc1)NC(=O)[C@@H](NC(=O)CNC(=O)[C@H](CCC(N)=O)NC(=O)[C@H](CO)NC(=O)[C@@H](N)Cc1c[nH]cn1)[C@@H](C)O)[C@@H](C)O)C(=O)N[C@@H](CO)C(=O)N[C@@H](CCCCNC(=O)COCCOCCNC(=O)COCCOCCNC(=O)CC[C@H](NC(=O)CCCCCCCCCCCCCCCCC(=O)O)C(=O)O)C(=O)N[C@@H](Cc1ccc(O)cc1)C(=O)N[C@@H](CC(C)C)C(=O)N[C@@H](CC(=O)O)C(=O)N[C@@H](CO)C(=O)N[C@@H](CCCNC(=N)N)C(=O)N[C@@H](CCCNC(=N)N)C(=O)N[C@@H](C)C(=O)N[C@@H](CCC(N)=O)C(=O)N[C@@H](CC(=O)O)C(=O)N[C@@H](Cc1ccccc1)C(=O)N[C@H](C(=O)N[C@@H](CC(=O)O)C(=O)N[C@@H](Cc1c[nH]c2ccccc12)C(=O)N[C@@H](CC(C)C)C(=O)N[C@@H](CCCCN)C(=O)N[C@@H](CC(N)=O)C(=O)NCC(=O)NCC(=O)N1CCC[C@H]1C(=O)N[C@@H](CO)C(=O)N[C@@H](CO)C(=O)NCC(=O)N[C@@H](C)C(=O)N1CCC[C@H]1C(=O)N1CCC[C@H]1C(=O)N1CCC[C@H]1C(=O)N[C@@H](CO)C(N)=O)C(C)C (H-HSQGTFTSDMSK([AEEA-AEEA-γGlu-C18 diacid])YLDSRRAQDFVDWLKNGGPSSGAPPPS-NH2)	0.052 nM	7%	1.4 nM			102%
H-HAEGTYTDDVSTYLQDQAAKDFVSWLKSGRA-NH2	0.31 nM					
H-HADGTFTSDMSSYLEEKAAKAFVDWLIKGRPK-NH2	0.11 nM					
CCCCCCCCCCCCCCCC(=O)N[C@@H](CCC(=O)NCCCC[C@H](NC(=O)[C@H](CO)NC(=O)[C@@H]1CCCN1C(=O)[C@@H]1CCCN1C(=O)[C@@H]1CCCN1C(=O)[C@H](C)NC(=O)CNC(=O)[C@H](CO)NC(=O)[C@H](CO)NC(=O)[C@@H]1CCCN1C(=O)CNC(=O)CNC(=O)[C@H](CC(N)=O)NC(=O)[C@H](CCCCN)NC(=O)[C@H](CC(C)C)NC(=O)[C@H](Cc1c[nH]c2ccccc12)NC(=O)[C@H](CC(=O)O)NC(=O)[C@@H](NC(=O)[C@H](Cc1ccccc1)NC(=O)[C@H](CC(=O)O)NC(=O)[C@H](CCC(N)=O)NC(=O)[C@H](C)NC(=O)[C@H](CCCNC(=N)N)NC(=O)[C@H](CCCNC(=N)N)NC(=O)[C@H](CO)NC(=O)[C@H](CC(=O)O)NC(=O)[C@H](CC(C)C)NC(=O)[C@H](Cc1ccc(O)cc1)NC(=O)[C@H](CCCCN)NC(=O)[C@H](CO)NC(=O)[C@H](CCSC)NC(=O)[C@H](CC(=O)O)NC(=O)[C@H](CO)NC(=O)[C@@H](NC(=O)[C@H](Cc1ccccc1)NC(=O)[C@@H](NC(=O)CNC(=O)[C@H](CCC(N)=O)NC(=O)[C@H](CO)NC(=O)[C@@H](N)Cc1c[nH]cn1)[C@@H](C)O)[C@@H](C)O)C(C)C)C(N)=O)C(=O)O (H-HSQGTFTSDMSKYLDSRRAQDFVDWLKNGGPSSGAPPPSK([γGlu-Palmitoyl])-NH2)	0.068 nM	17%	0.53 nM			78%
CCCCCCCCCCCCCCCC(=O)N[C@@H](CCC(=O)NCCCC[C@H](NC(=O)[C@H](CO)NC(=O)[C@H](CCSC)NC(=O)[C@H](CC(=O)O)NC(=O)[C@H](CO)NC(=O)[C@@H](NC(=O)[C@H](Cc1ccccc1)NC(=O)[C@@H](NC(=O)CNC(=O)[C@H](CCC(N)=O)NC(=O)[C@H](CO)NC(=O)[C@@H](N)Cc1c[nH]cn1)[C@@H](C)O)[C@@H](C)O)C(=O)N[C@@H](Cc1ccc(O)cc1)C(=O)N[C@@H](CC(C)C)C(=O)N[C@@H](CC(=O)O)C(=O)N[C@@H](CO)C(=O)N[C@@H](CCCNC(=N)N)C(=O)N[C@@H](CCCNC(=N)N)C(=O)N[C@@H](C)C(=O)N[C@@H](CCC(N)=O)C(=O)N[C@@H](CC(=O)O)C(=O)N[C@@H](Cc1ccccc1)C(=O)N[C@H](C(=O)N[C@@H](CC(=O)O)C(=O)N[C@@H](Cc1c[nH]c2ccccc12)C(=O)N[C@@H](CC(C)C)C(=O)N[C@@H](CCCCN)C(=O)N[C@@H](CC(N)=O)C(=O)NCC(=O)NCC(=O)N1CCC[C@H]1C(=O)N[C@@H](CO)C(=O)N[C@@H](CO)C(=O)NCC(=O)N[C@@H](C)C(=O)N1CCC[C@H]1C(=O)N1CCC[C@H]1C(=O)N1CCC[C@H]1C(=O)N[C@@H](CO)C(N)=O)C(C)C)C(=O)O (H-HSQGTFTSDMSK([γGlu-Palmitoyl])YLDSRRAQDFVDWLKNGGPSSGAPPPS-NH2)	0.046 nM		0.19 nM		48%	115%
H-HADGTFTSDMSSYLEEKAAKEFADWLIKGRPK-NH2	0.094 nM					
H-HADGTYTSDVSSYLQDQAAKKFVTWLKQGQDRRE-NH2	0.35 nM					
H-HADGTFTSDMSSYLEEKAAKEFVDWLIKGAPK-NH2	0.097 nM					
H-HSQGTFTSDMSSYLDSRRAQDFVDWLMNTKRNRNNIA-NH2	0.11 nM	11%	0.85 nM			45%
H-HADGTFTSDMSSALEEKAAKEFVDWLIKGRPK-NH2	0.56 nM					
H-HADGTFTSDMSSYLEEKAAKEFVDWLIKARPK-NH2	0.63 nM					
H-HADGTFTSDMSSYLEEKAAKEFVDWLIKGRPK-NH2	0.051 nM					
H-HADGTFTSDMSSYLEEKAAKEAVDWLIKGRPK-NH2	0.66 nM					
H-HADGTFTSDMSSYLEEKAAKEFVAWLIKGRPK-NH2	0.096 nM					
